What was measured:
Aβ40 = target: T1, Aβ40 (Homo sapiens, UniProt P05067); assay: ThT fluorescence assay of Aβ monomer aggregation; format: biochemical; conditions: 40 μM Aβ40 monomer, mean ± SEM, n = 3–5, N.E. = not significantly different from control samples; for Plateau Reduction (% Inhibition) / Lag Time Extension (Fold Increase): 100 µM compound; for Plateau Reduction (% Inhibition) / inhibition at 100 µM: 40 mM Tris-HCl pH 8.0, 25 °C; for Lag Time Extension (Fold Increase): T2/T1 relative to control; for inhibition at 100 µM: pH 8, 100 µM compound, read-out: Plateau Reduction (% Inhibition)
T1 construct: purchased AnaSpec; host or cells: synthetic peptide
Description: Synthetic Aβ40 was used in this study because it is the predominant isoform found in amyloid plaques isolated from AD brain [12]. Thioflavin T (ThT), a fluorescent compound that binds specifically to amyloid β-sheet structures to yield a shifted, enhanced florescence, was used to monitor the appearance of aggregates. […] The inhibitory effect of compounds on Aβ aggregation was evidenced as a reduction in the equilibrium plateau and/or an increase in the lag time. The plateau reduction (Figure 2A), which indicates inhibition that reduces the extent of Aβ aggregation, was defined as the percentage decrease of the plateau ThT fluorescence in the presence of inhibitor, P2, compared to the plateau ThT fluorescence in the absence of inhibitor, P1.
Lyophilized Aβ peptide was reconstituted in 50 mM NaOH at a concentration of 2 mg/mL and purified via size-exclusion chromatography (SEC) on a Superdex 75 HR 10/300 column (Cytiva, Marlborough, MA) using a running buffer of 40 mM Tris-HCl (pH 8.0). Bovine serum albumin (BSA) (2 mg/mL) was employed as a pretreatment to reduce nonspecific Aβ interaction with the dextran matrix of the column. […] The concentrations of eluted Aβ monomer fractions were determined with a calculated extinction coefficient of 1450 M^−1 cm^−1 at 276 nm. Purified Aβ monomer samples were used fresh or stored at 4 ℃ for up to 4 days.
All compounds were dissolved in DMSO at 5 mM and stored at −20 °C. […] DMSO (2% v/v) was added to control reactions run in parallel.
SEC-purified Aβ monomer was diluted to 40 μM in 40 mM Tris-HCl (pH 8.0) and agitated (vortex, 800 rpm, 25 °C) without (control) or with 100 µM ranitidine analogs. Periodically, a 20-μL aliquot was removed and combined with 140 μL of 10 μM ThT. Fluorescence (excitation = 450 nm, emission = 470–500 nm) was evaluated using a Perkin-Elmer LS-45 luminescence spectrometer (Waltham, MA, USA). Fluorescence values were calculated as the integrated area under the emission curve with baseline (ThT alone) subtraction and plotted vs. aggregation time. Each compound was evaluated using at least three independent experiments.
Figure 2 Assessment of the inhibition of Aβ monomer aggregation. Monomer aggregation assays were conducted in the absence (solid line, control) and presence (dotted line, experimental) of the ranitidine analogs, and aggregate formation was monitored as an increase in the ThT fluorescence. (A) Inhibition that decreases the quantity of aggregates formed at equilibrium is reported as the plateau reduction, the percentage decrease of the plateau ThT fluorescence in the presence of inhibitor, P2, compared to the plateau for the control, P1. (B) Inhibition that extends the time to aggregate formation is reported as the lag time extension. It is evidenced as an increase in the experimental lag time, T2, relative to the lag time for the control, T1, and evaluated as a fold increase relative to the control, T2/T1.

AChE = system: AChE; parameters: method as in PMID 27769620; conditions: previous study; cited from earlier work
electric eel AChE = target: T2, electric eel AChE (Electrophorus electricus, UniProt O42275); assay: AChE inhibition assay (modified Ellman method); format: biochemical; conditions: 0.1 M sodium phosphate pH 8.0, 37 °C, 200 µM acetylthiocholine
T2 construct: purchased Sigma (Sigma-Aldrich, St. Louis, MO, USA)
Method: Aβ40 was purchased from AnaSpec (AnaSpec, Fremont, CA, USA) and stored in lyophilized form at −20 °C. Thioflavin T (ThT) and electric eel AChE were obtained from Sigma (Sigma-Aldrich, St. Louis, MO, USA). Bovine serum albumin (BSA) and dimethyl sulfoxide (DMSO) were purchased from EMD Biosciences (EMD Biosciences, San Diego, CA, USA). Tris-HCl (pH 8.0) was prepared using Tris base, purchased from Promega (Promega, Madison, WI, USA) and Tris hydrochloride, purchased from EMD (EMD, Burlington, MA, USA).
The AChE inhibition assay was modified based on the method of Ellman et al. in a 24-well plate format at 37 °C. Assays were performed in 0.1 M sodium phosphate (pH 8.0), containing 200 µM acetylthiocholine, 100 µM dithiobisnitrobenzoic acid, and 0.005 units of AChE in a final volume of 3000 µL. The reaction was initiated by the addition of acetylthiocholine, and the formation of a product was monitored by measuring absorbance at 412 nm. The IC50 values were determined by nonlinear regression analysis of the concentration–response curves generated. Each compound was evaluated using at least three independent experiments.

T1 sequence (P05067 672-711 limits assumed): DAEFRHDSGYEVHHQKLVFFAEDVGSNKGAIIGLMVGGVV
T2 sequence (O42275 24-633): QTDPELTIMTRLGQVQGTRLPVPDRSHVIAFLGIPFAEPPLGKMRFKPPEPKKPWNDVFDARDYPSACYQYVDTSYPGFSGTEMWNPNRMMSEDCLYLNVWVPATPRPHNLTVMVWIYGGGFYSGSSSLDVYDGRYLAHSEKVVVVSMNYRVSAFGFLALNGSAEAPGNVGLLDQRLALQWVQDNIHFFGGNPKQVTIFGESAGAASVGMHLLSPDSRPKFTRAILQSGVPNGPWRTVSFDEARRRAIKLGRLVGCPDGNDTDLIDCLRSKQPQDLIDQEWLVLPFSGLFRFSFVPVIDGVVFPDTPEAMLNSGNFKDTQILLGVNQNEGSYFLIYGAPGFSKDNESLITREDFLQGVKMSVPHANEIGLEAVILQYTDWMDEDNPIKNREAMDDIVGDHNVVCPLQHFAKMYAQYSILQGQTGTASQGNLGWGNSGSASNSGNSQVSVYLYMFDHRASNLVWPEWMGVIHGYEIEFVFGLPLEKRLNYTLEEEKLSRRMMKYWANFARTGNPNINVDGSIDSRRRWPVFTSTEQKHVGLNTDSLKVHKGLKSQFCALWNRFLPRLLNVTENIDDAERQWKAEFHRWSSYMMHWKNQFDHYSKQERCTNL

In the case of “2-(2-(Methylthio)ethyl)-5-nitro-1H-benzo[de]isoquinoline-1,3(2H)-dione [Compound 7]”, the “Plateau Reduction (% Inhibition)” value (Aβ40) is reported as “abrogated and N.E” and the “Lag Time Extension (Fold Increase)” value (Aβ40) is reported as “N.E”.
With CC1CC(=O)N(CCSCc2ccc(CN(C)C)o2)C1=O (centres unmarked) [Compound 1] the “Plateau Reduction (% Inhibition)” value (Aβ40) was “N.E” and the “Lag Time Extension (Fold Increase)” value (Aβ40) was 2.8 ± 0.6 fold.
With CN(C)Cc1ccc(CSCCN2C(=O)c3ccccc3C2=O)o1 [Compound 2] the “Plateau Reduction (% Inhibition)” value (Aβ40) was “N.E” and the “Lag Time Extension (Fold Increase)” value (Aβ40) was “lost and N.E”.
For CN(C)Cc1ccc(CSCCN2C(=O)c3cccc4cccc(c34)C2=O)o1 [Compound 3], the “Lag Time Extension (Fold Increase)” value (Aβ40) was “lost and N.E” and the inhibition at 100 µM (Aβ40) was 60.9%.
For CN(C)Cc1ccc(CSCCN2C(=O)c3ccc([N+](=O)[O-])cc3C2=O)o1 [Compound 5], the “Lag Time Extension (Fold Increase)” value (Aβ40) was 2.0 ± 0.6 fold and the inhibition at 100 µM (Aβ40) was 39.1%.
In the case of CN(C)Cc1ccc(CSCCN2C(=O)c3cccc4cc([N+](=O)[O-])cc(c34)C2=O)o1 [Compound 6], the “Lag Time Extension (Fold Increase)” value (Aβ40) is listed as “N.E”, the inhibition at 100 µM (Aβ40) is listed as 71.8% and the IC50 (AChE) is listed as 150 nM.
With CN(C)Cc1ccc(CSCCN2C(=O)c3cccc4c(Cl)ccc(c34)C2=O)o1 [Compound 8, 6-Chloro-2-(2-(((5-((dimethylamino)methyl)furan-2-yl)methyl)thio)ethyl)-1H-benzo [de]isoquinoline-1,3(2H)-dione] the “Lag Time Extension (Fold Increase)” value (Aβ40) was “N.E”, the inhibition at 100 µM (Aβ40) was 65.8% and the IC50 (electric eel AChE) was 1.23 µM.
With CN(C)Cc1nc(CSCCN2C(=O)c3cccc4cccc(c34)C2=O)cs1 [Compound 9, 2-(2-((2-((Dimethylamino)methyl)thiazol-4-yl)methylthio)ethyl)-1H-benzo[de]iso quinoline-1,3(2H)-dione] the “Plateau Reduction (% Inhibition)” value (Aβ40) was 54.2% ± 5.1%, the “Lag Time Extension (Fold Increase)” value (Aβ40) was “N.E” and the inhibition at 100 µM (Aβ40) was 61.4%. For the same compound, the IC50 (electric eel AChE) was 2.02 µM.
In the case of CN(C)Cc1nc(CSCCN2C(=O)c3cccc4cc([N+](=O)[O-])cc(c34)C2=O)cs1 [Compound 10, 2-(2-(((2-((Dimethylamino)methyl)thiazol-4-yl)methyl)thio)ethyl)-5-nitro-1H-benzo[de]isoquinoline-1,3(2H)-dione], the “Plateau Reduction (% Inhibition)” value (Aβ40) is reported as 61.4% ± 19.7%, the “Lag Time Extension (Fold Increase)” value (Aβ40) is reported as “N.E” and the inhibition at 100 µM (Aβ40) is reported as 54.2%. It also gave an IC50 (electric eel AChE) of 0.52 µM.
With O=C1c2cccc3cc([N+](=O)[O-])cc(c23)C(=O)N1CCc1ccco1 [Compound 11, 2-(2-(furan-2-yl)ethyl)-5-nitro-1H-benzo[de]isoquinoline-1,3(2H)-dione] the “Lag Time Extension (Fold Increase)” value (Aβ40) was 1.76 ± 0.61 fold and the inhibition at 100 µM (Aβ40) was 60.3%.
For CN(C)Cc1ccc(CCN2C(=O)c3cccc4cc([N+](=O)[O-])cc(c34)C2=O)o1 [Compound 12, 2-(2-(5-((Dimethylamino)methyl)furan-2-yl)ethyl)-5-nitro-1H-benzo[de]isoquino line-1,3(2H)-dione], the “Lag Time Extension (Fold Increase)” value (Aβ40) was 2.25 ± 0.25 fold, the inhibition at 100 µM (Aβ40) was 65.6% and the IC50 (electric eel AChE) was 0.36 µM.
In the case of CN(C)Cc1ccc(C[S+]([O-])CCN2C(=O)c3cccc4cc([N+](=O)[O-])cc(c34)C2=O)o1 (centres unmarked) [Compound 13, 2-(2-(((5-((Dimethylamino)methyl)furan-2-yl)methyl)sulfinyl)ethyl)-5-nitro-1H-benzo[de]isoquinoline-1,3(2H)-dione], the “Lag Time Extension (Fold Increase)” value (Aβ40) is reported as “N.E” and the inhibition at 100 µM (Aβ40) is reported as 26.8%.
With CN(C)Cc1ccc(C[S+]([O-])CCN2C(=O)c3cccc4cccc(c34)C2=O)o1 (centres unmarked) [Compound 14, 2-(2-(((5-((Dimethylamino)methyl)furan-2-yl)methyl)sulfinyl)ethyl)-1H-benzo[de] isoquinoline-1,3(2H)-dione] the “Lag Time Extension (Fold Increase)” value (Aβ40) was “N.E” and the inhibition at 100 µM (Aβ40) was 20.1%.
With C[N+](C)([O-])Cc1ccc(CS(=O)(=O)CCN2C(=O)c3cccc4cc([N+](=O)[O-])cc(c34)C2=O)o1 [Compound 15, N,N-Dimethyl-1-(5-(((2-(5-nitro-1,3-dioxo-1H-benzo[de]isoquinolin-2(3H)-yl)ethyl)sulfonyl)methyl)furan-2-yl)methanamine oxide] the “Lag Time Extension (Fold Increase)” value (Aβ40) was “N.E” and the inhibition at 100 µM (Aβ40) was 20.4%.
